# Source: the supplement of paper PMC10307832
# Assays:
# Assay in all cases: relative viability (nuclei count vs DMSO), 5 days (fraction); higher = more cells survive
# Pemetrexed + Luminespib = compound: Nc1nc2[nH]cc(CCc3ccc(C(=O)N[C@@H](CCC(=O)O)C(=O)O)cc3)c2c(=O)[nH]1 [Pemetrexed] + CCNC(=O)c1noc(-c2cc(C(C)C)c(O)cc2O)c1-c1ccc(CN2CCOCC2)cc1 [Luminespib] (partner 0.01 µM)
# Method in brief: (§1)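 After 5 days of treatment, lung cancer cells in 1536-well plates were fixed and stained in a single step (final 0.05% Triton X-100, 1% formaldehyde, 1 ug/ml Hoechst) and their nuclei counted on 4× images. Treatment had been applied by pin tool the day after seeding as one drug alone or as a fixed anchor-drug dose with five library-drug doses (not always all listed) in √10 steps. Relative viability is the nuclei count of treated wells divided by that of vehicle wells, and values are medians of duplicate plates.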
# Idelalisib + Crizotinib = compound: CC[C@H](Nc1ncnc2[nH]cnc12)c1nc2cccc(F)c2c(=O)n1-c1ccccc1 [Idelalisib] + C[C@@H](Oc1cc(-c2cnn(C3CCNCC3)c2)cnc1N)c1c(Cl)ccc(F)c1Cl [Crizotinib] (partner 1 µM)
# Method in brief: as §1
# Idelalisib + Trametinib = compound: CC[C@H](Nc1ncnc2[nH]cnc12)c1nc2cccc(F)c2c(=O)n1-c1ccccc1 [Idelalisib] + CC(=O)Nc1cccc(-n2c(=O)n(C3CC3)c(=O)c3c(Nc4ccc(I)cc4F)n(C)c(=O)c(C)c32)c1 [Trametinib] (partner 0.02 µM)
# Method in brief: as §1
# Idelalisib + Vorinostat = compound: CC[C@H](Nc1ncnc2[nH]cnc12)c1nc2cccc(F)c2c(=O)n1-c1ccccc1 [Idelalisib] + O=C(CCCCCCC(=O)Nc1ccccc1)NO [Vorinostat] (partner 1 µM)
# Method in brief: as §1
Cell Line,relative viability (Pemetrexed + Luminespib; first compound 0.002 µM),relative viability (Pemetrexed + Luminespib; first compound 0.006325 µM),relative viability (Pemetrexed + Luminespib; first compound 0.02 µM),relative viability (Pemetrexed + Luminespib; first compound 0.06325 µM),relative viability (Pemetrexed + Luminespib; first compound 0.2 µM),relative viability (Idelalisib + Crizotinib; first compound 0.04 µM),relative viability (Idelalisib + Crizotinib; first compound 0.1265 µM),relative viability (Idelalisib + Crizotinib; first compound 0.4 µM),relative viability (Idelalisib + Crizotinib; first compound 1.265 µM),relative viability (Idelalisib + Crizotinib; first compound 4 µM),relative viability (Idelalisib + Trametinib; first compound 0.04 µM),relative viability (Idelalisib + Trametinib; first compound 0.1265 µM),relative viability (Idelalisib + Trametinib; first compound 0.4 µM),relative viability (Idelalisib + Trametinib; first compound 1.265 µM),relative viability (Idelalisib + Trametinib; first compound 4 µM),relative viability (Idelalisib + Vorinostat; first compound 0.04 µM),relative viability (Idelalisib + Vorinostat; first compound 0.1265 µM),relative viability (Idelalisib + Vorinostat; first compound 0.4 µM),relative viability (Idelalisib + Vorinostat; first compound 1.265 µM),relative viability (Idelalisib + Vorinostat; first compound 4 µM)
NCI-H1651,0.845,0.792,0.965,0.983,0.732,0.919,0.861,0.846,0.864,0.876,0.825,0.85,0.815,0.844,0.814,0.577,0.416,0.552,0.617,0.593
NCI-H1666,1,0.942,1.01,1.01,0.839,0.953,1.03,0.809,0.964,0.721,0.806,0.931,0.815,0.803,0.831,1.01,1.02,0.962,1.05,1.08
NCI-H1734,0.208,0.192,0.219,0.206,0.218,0.789,0.639,0.604,0.685,0.527,0.696,0.697,0.546,0.69,0.556,0.914,0.846,0.627,0.642,0.755
NCI-H1755,0.421,0.594,0.631,0.415,0.437,0.812,0.878,0.832,0.745,0.671,0.764,0.773,0.745,0.674,0.732,0.884,0.748,0.751,0.634,0.723
NCI-H1915,0.818,0.857,0.84,0.836,0.781,0.989,0.865,0.848,0.979,0.895,0.281,0.291,0.291,0.317,0.265,0.567,0.534,0.498,0.503,0.448
NCI-H1944,–,0.752,0.72,0.734,0.69,1.38,0.994,1.02,0.976,0.97,0.448,0.354,0.336,0.352,0.318,0.68,0.526,0.529,0.5,0.48
NCI-H1975,0.169,0.295,0.177,0.195,0.169,1.08,0.944,0.817,1,0.81,0.328,0.382,0.37,0.375,0.288,0.693,0.776,0.681,0.671,0.588
NCI-H1993,0.432,0.623,0.868,0.913,0.41,0.873,0.893,0.879,0.834,0.73,0.688,0.302,0.617,0.547,0.448,0.983,1.09,0.516,0.921,0.487
